Laboratory results taken from patent US7473783B2, “Bicyclic pyrazolo protein kinase modulators” (SGX Pharmaceuticals, Inc., priority 2003, dated 2009).

Experiments:
[1] = test system: MV4-11 cells; assay: Cell survival assay (96-well XTT / 384-well AlamarBlue), MV4-11; type: cell-based; settings: Homo sapiens, Table 10, symbol outside brackets, 72 hours
Protocol: (§1) Flt3 cell line selection was performed according to the following two known methodologies: Kelly, et al, Cancer Cell 1:421-32 (2002); and Ye, et al, Blood 100: 2941-2949 (2002). MV4-11 and THP cells are maintained in Iscove's Modified Dulbecco's Medium supplemented with 10% fetal bovine serum (FBS) and penicillin/streptomycin, Ba/F3 cells are maintained in RPMI 1640 supplemented with 10% FBS, penicillin/streptomycin and 5ng/ml recombinant mouse IL-3.
(§2) Compounds were tested in both of the following assays in triplicates.
(§3) 96-well XTT assay: Cells are grown in their growth media containing various concentrations of compounds (triplicates) on a 96-well plate for 72 hours at 37° C. The starting cell number is 8000 cells per well and volume is 120 μl. At the end of the 72-hour incubation, 40μl of XTT labeling mixture (50:1 solution of sodium 3′-[1 -(pheylamino-carbonyl)-3,4-tetrazolium]-bis (4-methoxy-6-nitro)benzene sulfonic acid hydrate and Electron-coupling reagent: PMS (N-methyl dibenzopyrazine methyl sulfate) is added to each well of the plate. After additional 2 hours of incubation at 37° C., the absorbance reading at 405 nm with background correction at 650 nm is done using a spectrophotometer.
(§4) 384-well AlamarBlue assay: 90 μl of cell suspension is plated onto each well of a 384-well plate preprinted with 0.5 μl of compound in DMSO or DMSO only. The starting cell number is 4000 cells per well. After 72-hour incubation, 10 μl of AlamarBlue solution (440 μM resazurin in PBS) is then added to each well of the plate. After additional 2-hour incubation at 37° C., fluorescence is measured using a TECAN plate reading with excitation at 535 nm and emission 591 nm.

[2] = test system: THP cells; assay: Cell survival assay (96-well XTT / 384-well AlamarBlue), THP; type: cell-based; settings: Table 10; symbol in brackets; 72 hours
Protocol: as §1, §2, §3, §4

SMILES | IC50 [1] | IC50 [2]
O=C(Nc1nc2[nH]nc(-c3ccc(Cl)cc3)c2s1)c1ccccc1 [drawing 281] | 1 to 10 µM | 11 to 100 µM
COCCOCC(=O)Nc1nc2[nH]nc(-c3ccccc3)c2s1 [drawing 283] | 1 to 10 µM | 11 to 100 µM
